Assay [1] concerns the target Csm6-2 L473E/L474E mutant (Actinomyces procaprae). Nature of the assay: SEC; size-exclusion chromatography profiles of WT and L473E/L474E mutant proteins. In general terms: Size exclusion chromatography separates by hydrodynamic size, large species first.
Assay [2] has as its target T1, Csm6-2 (ApCsm6-2) (Actinomyces procaprae, UniProt Z9IBH4OPS2).
T1 construct: full length, tandem CARF1-HEPN1 (1-400) and CARF2-HEPN2 (401-797); N-terminal His6 tag, pET-28a, E. coli Rosetta (DE3), codon-optimised; homotetramer
T1 sequence (Z9IBH4OPS2 1-797): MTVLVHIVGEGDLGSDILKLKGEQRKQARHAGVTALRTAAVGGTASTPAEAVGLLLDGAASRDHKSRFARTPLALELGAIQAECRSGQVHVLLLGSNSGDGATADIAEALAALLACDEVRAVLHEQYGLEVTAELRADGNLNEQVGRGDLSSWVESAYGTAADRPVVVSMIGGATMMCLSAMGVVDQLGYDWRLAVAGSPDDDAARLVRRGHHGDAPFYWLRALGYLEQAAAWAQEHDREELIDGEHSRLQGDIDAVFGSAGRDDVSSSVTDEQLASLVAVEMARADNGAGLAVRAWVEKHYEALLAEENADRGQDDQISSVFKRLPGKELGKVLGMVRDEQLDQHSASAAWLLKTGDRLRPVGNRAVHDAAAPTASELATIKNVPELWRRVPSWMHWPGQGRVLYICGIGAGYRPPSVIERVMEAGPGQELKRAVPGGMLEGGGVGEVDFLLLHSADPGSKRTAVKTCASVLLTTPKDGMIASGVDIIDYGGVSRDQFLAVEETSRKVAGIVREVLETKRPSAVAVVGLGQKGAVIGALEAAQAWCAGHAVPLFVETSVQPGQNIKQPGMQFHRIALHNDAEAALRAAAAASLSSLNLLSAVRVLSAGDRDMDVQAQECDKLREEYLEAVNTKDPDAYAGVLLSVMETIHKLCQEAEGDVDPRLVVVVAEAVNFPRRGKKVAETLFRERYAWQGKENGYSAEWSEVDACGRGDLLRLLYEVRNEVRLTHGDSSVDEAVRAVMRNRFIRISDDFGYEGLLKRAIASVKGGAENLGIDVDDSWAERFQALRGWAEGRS
As to the kind of experiment: SPR (Biacore 8K, CM5 chip, amine-coupled Csm6-2). It counts as binding. In general terms: Surface plasmon resonance follows binding to a sensor surface in real time, without labels.

Like-named read-outs stand apart in the source and are kept apart here.

The stoichiometry N is the number of molecules, sites or subunits per partner or assembly. Broadly, the Kd is the constant that tells how readily two partners part at equilibrium. Low readings indicate tighter binding, high ones weaker binding.

Molecule Csm6-2 L473E/L474E mutant (enzyme) registered a stoichiometry N in assay [1] of 2.

The molecule `Nc1ncnc2c1ncn2[C@@H]1O[C@@H]2COP(=O)(O)O[C@H]3[C@@H](O)[C@H](n4cnc5c(N)ncnc54)O[C@@H]3COP(=O)(O)O[C@H]3[C@@H](O)[C@H](n4cnc5c(N)ncnc54)O[C@@H]3COP(=O)(O)O[C@H]3[C@@H](O)[C@H](n4cnc5c(N)ncnc54)O[C@@H]3COP(=O)(O)O[C@H]3[C@@H](O)[C@H](n4cnc5c(N)ncnc54)O[C@@H]3COP(=O)(O)O[C@H]3[C@@H](O)[C@H](n4cnc5c(N)ncnc54)O[C@@H]3COP(=O)(O)O[C@H]2[C@H]1O` [cA6] had a Kd in assay [2] of 3.72 nM.

For `Nc1ncnc2c1ncn2[C@@H]1O[C@@H]2COP(=O)(O)O[C@H]3[C@@H](O)[C@H](n4cnc5c(N)ncnc54)O[C@@H]3COP(=O)(O)O[C@H]3[C@@H](O)[C@H](n4cnc5c(N)ncnc54)O[C@@H]3COP(=O)(O)O[C@H]3[C@@H](O)[C@H](n4cnc5c(N)ncnc54)O[C@@H]3COP(=O)(O)O[C@H]3[C@@H](O)[C@H](n4cnc5c(N)ncnc54)O[C@@H]3COP(=O)(O)O[C@H]2[C@H]1O` [cA5], the Kd in assay [2] (PBST (0.5% Tween-20) running buffer, allosteric activator, CARF domain pocket) stood at 1.41 nM.

For the origin of these results see PMC13187428, “Mechanistic basis for selective Csm6-2 activation by cyclic penta-adenylate in a type III CRISPR-Cas system” (The EMBO Journal, 2026).
